According to ChEMBL document CHEMBL1135648, “Synthesis and evaluation of no-carrier-added 8-cyclopentyl-3-(3-[(18)F]fluoropropyl)-1-propylxanthine ([(18)F]CPFPX): a potent and selective A(1)-adenosine receptor antagonist for in vivo imaging” (J Med Chem, 2002):
pKd: −log10 of the molar value.

Experiments:
Mus musculus [1] = assay: In vivo biodistribution in NMRI (Naval Medical Research Institute) mice bone at the dose of 0.15-0.2 nmol at 2 min; format: ADME, organism-based, Bone element
[2] = Ultrafiltration in human plasma; format: functional
Mus musculus [3] = assay: In vivo biodistribution in NMRI (Naval Medical Research Institute) mice heart at the dose of 0.15-0.2 nmol at 20 min; format: ADME, organism-based
Mus musculus [4] = assay: In vivo biodistribution in NMRI (Naval Medical Research Institute) mice bone at the dose of 0.15-0.2 nmol at 20 min; format: ADME, organism-based, Bone element
Mus musculus [5] = assay: In vivo biodistribution in NMRI (Naval Medical Research Institute) mice splee nat the dose of 0.15-0.2 nmol at 10 min; format: ADME, organism-based
Mus musculus [6] = assay: In vivo biodistribution in NMRI (Naval Medical Research Institute) mice spleen at the dose of 0.15-0.2 nmol at 60 min; format: ADME, organism-based; conditions: 1 h
Mus musculus [7] = assay: In vivo biodistribution in NMRI (Naval Medical Research Institute) mice kidney at the dose of 0.15-0.2 nmol at 20 min; format: ADME, organism-based
Mus musculus [8] = assay: In vivo biodistribution in NMRI (Naval Medical Research Institute) mice heart at the dose of 0.15-0.2 nmol at 2 min; format: ADME, organism-based
Mus musculus [9] = assay: In vivo biodistribution in NMRI (Naval Medical Research Institute) mice pnacreas at the dose of 0.15-0.2 nmol at 20 min; format: ADME, organism-based
Mus musculus [10] = assay: In vivo biodistribution in NMRI (Naval Medical Research Institute) mice spleen at the dose of 0.15-0.2 nmol at 40 min; format: ADME, organism-based
Mus musculus [11] = assay: In vivo biodistribution in NMRI (Naval Medical Research Institute) mice kidney at the dose of 0.15-0.2 nmol at 10 min; format: ADME, organism-based
Mus musculus [12] = assay: In vivo biodistribution in NMRI (Naval Medical Research Institute) mice intestine at the dose of 0.15-0.2 nmol at 10 min; format: ADME, organism-based
Mus musculus [13] = assay: In vivo biodistribution in NMRI (Naval Medical Research Institute) mice brain at the dose of 0.15-0.2 nmol at 60 min; format: ADME, organism-based; conditions: 1 h
Mus musculus [14] = assay: In vivo biodistribution in NMRI (Naval Medical Research Institute) mice brain at the dose of 0.15-0.2 nmol at 40 min; format: ADME, organism-based
Mus musculus [15] = assay: In vivo biodistribution in NMRI (Naval Medical Research Institute) mice brain at the dose of 0.15-0.2 nmol at 20 min; format: ADME, organism-based
Mus musculus [16] = assay: In vivo biodistribution in NMRI (Naval Medical Research Institute) mice spleen at the dose of 0.15-0.2 nmol at 2 min; format: ADME, organism-based
Mus musculus [17] = assay: In vivo biodistribution in NMRI (Naval Medical Research Institute) mice pancreas at the dose of 0.15-0.2 nmol at 60 min; format: ADME, organism-based; conditions: 1 h
Mus musculus [18] = assay: In vivo biodistribution in NMRI (Naval Medical Research Institute) mice liver at the dose of 0.15-0.2 nmol at 10 min; format: ADME, organism-based
Mus musculus [19] = assay: In vivo biodistribution in NMRI (Naval Medical Research Institute) mice kidney at the dose of 0.15-0.2 nmol at 2 min; format: ADME, organism-based
Mus musculus [20] = assay: In vivo biodistribution in NMRI (Naval Medical Research Institute) mice heart at the dose of 0.15-0.2 nmol at 5 min; format: ADME, organism-based
Mus musculus [21] = assay: In vivo biodistribution in NMRI (Naval Medical Research Institute) mice lung at the dose of 0.15-0.2 nmol at 20 min; format: ADME, organism-based
Mus musculus [22] = assay: In vivo biodistribution in NMRI (Naval Medical Research Institute) mice heart at the dose of 0.15-0.2 nmol at 10 min; format: ADME, organism-based
Mus musculus [23] = assay: In vivo biodistribution in NMRI (Naval Medical Research Institute) mice brain at the dose of 0.15-0.2 nmol at 5 min; format: ADME, organism-based
Adenosine receptor A1 = target: T1, Adenosine receptor A1 (Rattus norvegicus, UniProt P25099); assay: In vitro binding affinity at rat Adenosine A1 receptor
T1 sequence (P25099 whole entry): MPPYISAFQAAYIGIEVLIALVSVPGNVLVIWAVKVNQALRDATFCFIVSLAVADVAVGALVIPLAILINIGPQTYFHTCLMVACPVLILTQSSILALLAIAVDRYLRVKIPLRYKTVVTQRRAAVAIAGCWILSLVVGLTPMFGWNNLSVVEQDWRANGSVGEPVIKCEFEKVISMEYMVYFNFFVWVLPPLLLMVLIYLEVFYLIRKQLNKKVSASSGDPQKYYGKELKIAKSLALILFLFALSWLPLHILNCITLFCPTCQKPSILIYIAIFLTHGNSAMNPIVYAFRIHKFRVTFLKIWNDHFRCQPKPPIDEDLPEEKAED

Mus musculus [24] = assay: In vivo biodistribution in NMRI (Naval Medical Research Institute) mice bone at the dose of 0.15-0.2 nmol at 60 min; format: ADME, organism-based, Bone element; conditions: 1 h
Mus musculus [25] = assay: In vivo biodistribution in NMRI (Naval Medical Research Institute) mice liver at the dose of 0.15-0.2 nmol at 40 min; format: ADME, organism-based
Mus musculus [26] = assay: In vivo biodistribution in NMRI (Naval Medical Research Institute) mice pancreas at the dose of 0.15-0.2 nmol at 10 min; format: ADME, organism-based
Mus musculus [27] = assay: In vivo biodistribution in NMRI (Naval Medical Research Institute) mice pancreas at the dose of 0.15-0.2 nmol at 40 min; format: ADME, organism-based
Mus musculus [28] = assay: In vivo biodistribution in NMRI (Naval Medical Research Institute) mice liver at the dose of 0.15-0.2 nmol at 2 min; format: ADME, organism-based
Mus musculus [29] = assay: In vivo biodistribution in NMRI (Naval Medical Research Institute) mice blood at the dose of 0.15-0.2 nmol at 10 min; format: ADME, organism-based
Mus musculus [30] = assay: In vivo biodistribution in NMRI (Naval Medical Research Institute) mice lung at the dose of 0.15-0.2 nmol at 10 min; format: ADME, organism-based
Mus musculus [31] = assay: In vivo biodistribution in NMRI (Naval Medical Research Institute) mice lung at the dose of 0.15-0.2 nmol at 2 min; format: ADME, organism-based

CCCn1c(=O)c2nc(C3CCCC3)[nH]c2n(CCC[18F])c1=O
ID/g (Mus musculus [1]): 0.37%
Ultrafiltration [2]: 86
ID/g (Mus musculus [3]): 4.11%
ID/g (Mus musculus [4]): 2.02%
ID/g (Mus musculus [5]): 1.77%
ID/g (Mus musculus [6]): 0.84%
ID/g (Mus musculus [7]): 6.05%
ID/g (Mus musculus [8]): 4.64%
ID/g (Mus musculus [9]): 4.58%
ID/g (Mus musculus [10]): 1.79%
ID/g (Mus musculus [11]): 6.1%
ID/g (Mus musculus [12]): 3.08%
ID/g (Mus musculus [13]): 1.55%
ID/g (Mus musculus [14]): 2.52%
ID/g (Mus musculus [15]): 2.39%
ID/g (Mus musculus [16]): 2.25%
ID/g (Mus musculus [17]): 1.03%
ID/g (Mus musculus [18]): 8.64%
ID/g (Mus musculus [19]): 4.68%
ID/g (Mus musculus [20]): 3.71%
ID/g (Mus musculus [21]): 5.75%
ID/g (Mus musculus [22]): 3.83%
ID/g (Mus musculus [23]): 2.37%
pKd (Adenosine receptor A1): 9.20
ID/g (Mus musculus [24]): 2.27%
ID/g (Mus musculus [25]): 9.61%
ID/g (Mus musculus [26]): 4.29%
ID/g (Mus musculus [27]): 3.22%
ID/g (Mus musculus [28]): 9.34%
ID/g (Mus musculus [29]): 5.21%
ID/g (Mus musculus [30]): 5.79%
ID/g (Mus musculus [31]): 5.35%
